“Also recorded” adds a separate entry of the source. Like-named read-outs stand apart in the source and are kept apart here.
How the values were obtained:
HCMV strain Ad169 = assay: HCMV plaque reduction assay in HEL cells; type: cell-based, human cytomegalovirus; conditions: for EC50: Human betaherpesvirus 5, AD169, HEL, CMV infected cells
Experimental: HCMV strain Ad169 was a gift from Dr. Fred Rapp, Hersey, Pa. Human embryonic lung (HEL) cells, obtained from the American Type Culture Collection, Rockville, Md., were cultured in Dulbecco modified Eagle medium as decribed previously (39). Viable cells were conducted microscopically using a hemacytometer and the trypan blue exclusion method. Plaque reduction assays were performed in confluent monolayers of HEL cells in 6-well plates (Costar, Cambridge, Mass.) with 100 to 200 pfu of HCMV Ad169. After an adsorption period of 1 hour, unadsorbed virus was removed and the monolayers were overlaid with Dulbecco modified Eagle medium containing 0.75% SeaPlaque agarose (FMC BioProducts, Rockland, Me.), 2% heat inactivated fetal calf serum, and the appropriate concentration of drug. The plates were incubated at 37° C. in a humidified atmosphere containing 5% CO2 for 10 to 12 days. The monolayers were then fixed with 10% buffered Formalin (Fisher Scientific Co, Fair Lawn, N.J.), stained with crystal violet, and the number of plaques were counted.
(§1) Calculation of synergy. […] Briefly, the method involves plotting of dose-effect curves for each compound alone and in combinations. It is essential to use a fixed ratio of the agents in multiply diluted combinations in order to use the median-effect equation: fa /fu =(C/Cm)^m. In this equation, C is the concentration, fa and fu are the fractions of the system which are affected and unaffected, respectively, by concentration C. Cm is the concentration required for a 50% effect (analogous to IC50 to EC50 values), and m is a Hill-type coefficient signifying the sigmoidicity of the dose-effect curve. The slopes (m) of the dose-effect plots, obtained for the studied compounds, provided information as to whether the compounds are mutually exclusive (i.e. similar modes of action) or mutually non-exclusive (i.e. different modes of action). When the plots of both compounds and their combination were all parallel, the effects of the two compounds were mutually exclusive. The interaction between two compounds was determined by calculating the combination index (C.I.) with assumptions, where appropriate, of either mutually exclusive or non-exclusive interactions. When uncertainty existed as to whether the drugs acted in similar or independent manners, the determination of C.I.-values were calculated under each assumption and compared. Values of C.I.<1 indicated synergy, C.I.=1 indicated additive effects, and C.I.>1 indicated antagonism. A computer program obtained from Elsevier-Biosoft, Cambridge, U.K. was used for automatic analysis of all dose-effect data. Additional details on using this method have been reported previously (33).

HIV-1 (strain LAV-1) = assay: HIV-1 replication in infected human PBM cells (RT activity of disrupted virions); type: cell-based; conditions: for EC50: read-out: EC50 (median effective concentration)
Source text: Cells, virus strains, and cell culture assays. PBM cells from healthy HIV-1 and hepatitis B virus seronegative donors were isolated and propagated as described previously (35). HIV-1 (strain LAV-1) was obtained from the Centers for Disease Control, Atlanta, and propagated in PHA-stimulated human PBM cells as described previously (35). The details of the methods used for infection and assaying the anti-HIV-1 effect in infected human PBM cells have been reported (35).
RT activity assay with disrupted virions. Six ml supernatant from each culture was clarified from cells at 300× g for 10 minutes. Virus particles were then pelleted from 5 ml samples at 40,000 rpm for 30 minutes using a Beckman 70.1 Ti rotor and suspended in 200 μl of virus disrupting buffer [50 mM Tris-HCl pH 7.8, 800 mM NaCl, 20% glycerol, 0.5 mM phenylmethyl sulfonyl fluoride (PMSF), and 0.5% Triton X-100].
The RT assays were performed at 37° C. in 96-well microtiter plates using methods described previously (35, 38). The results were expressed as dpm/ml of the originally clarified supernatant.
as §1

HCMV DNA polymerase = target: T1, HCMV DNA polymerase (Human cytomegalovirus, UniProt P08546); assay: CMV DNA polymerase assay; type: biochemical
T1 construct: gift from Dr. B. Wahren, National Bacteriological Laboratory, Stockholm
T1 sequence (P08546 whole entry): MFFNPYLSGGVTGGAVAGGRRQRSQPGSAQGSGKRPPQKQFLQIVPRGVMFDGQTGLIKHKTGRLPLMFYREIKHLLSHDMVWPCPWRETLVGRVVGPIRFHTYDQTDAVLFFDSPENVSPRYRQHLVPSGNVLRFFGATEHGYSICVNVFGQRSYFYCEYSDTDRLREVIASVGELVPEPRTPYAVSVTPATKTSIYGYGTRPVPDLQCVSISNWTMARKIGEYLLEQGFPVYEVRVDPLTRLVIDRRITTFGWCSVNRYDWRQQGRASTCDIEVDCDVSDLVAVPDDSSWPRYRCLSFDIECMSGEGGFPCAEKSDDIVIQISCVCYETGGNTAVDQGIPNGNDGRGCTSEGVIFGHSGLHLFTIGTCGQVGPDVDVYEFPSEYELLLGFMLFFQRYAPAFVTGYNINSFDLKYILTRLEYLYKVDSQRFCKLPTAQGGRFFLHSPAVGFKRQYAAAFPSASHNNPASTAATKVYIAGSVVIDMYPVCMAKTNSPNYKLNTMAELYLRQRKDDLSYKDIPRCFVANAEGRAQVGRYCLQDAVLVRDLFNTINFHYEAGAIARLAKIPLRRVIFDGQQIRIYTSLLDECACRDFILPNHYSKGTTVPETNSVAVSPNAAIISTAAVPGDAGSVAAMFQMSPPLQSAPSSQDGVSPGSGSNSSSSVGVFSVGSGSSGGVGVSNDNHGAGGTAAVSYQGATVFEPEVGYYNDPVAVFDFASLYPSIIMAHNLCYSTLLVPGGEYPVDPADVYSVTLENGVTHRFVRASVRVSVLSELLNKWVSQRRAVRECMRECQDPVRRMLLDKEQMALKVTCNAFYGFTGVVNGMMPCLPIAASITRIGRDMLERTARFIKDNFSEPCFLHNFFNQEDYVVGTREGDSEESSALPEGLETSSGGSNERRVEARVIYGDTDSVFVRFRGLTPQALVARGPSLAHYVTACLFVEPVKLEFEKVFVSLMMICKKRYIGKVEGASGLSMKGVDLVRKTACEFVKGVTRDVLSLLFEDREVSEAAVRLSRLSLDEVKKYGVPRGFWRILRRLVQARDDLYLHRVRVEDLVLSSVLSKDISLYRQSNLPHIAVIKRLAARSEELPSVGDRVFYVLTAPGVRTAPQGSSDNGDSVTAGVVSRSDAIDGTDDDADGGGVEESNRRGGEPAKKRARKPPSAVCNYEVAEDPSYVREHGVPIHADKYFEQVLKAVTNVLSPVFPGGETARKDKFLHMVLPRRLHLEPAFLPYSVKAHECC
Source text: CMV DNA Polymerase Assay. The partially purified HCMV-specific DNA polymerase was a generous gift from Dr. B. Wahren, National Bacteriological Laboratory, Stockholm. The procedure for the purification of HCMV DNA polymerase by sequential chromatographic steps on DEAE-cellulose (Whatman DE-52) and phosphocellulose (Whatman P-11) and the measurement of enzyme activity have been described previously (5).
as §1

[1] = target: T2, HIV-1 reverse transcriptase (Human immunodeficiency virus type 1 group M subtype B, UniProt P04585); assay: RT activity assay with partially purified enzyme; type: biochemical
T2 construct: HIV-1 reverse transcriptase was isolated from detergent disrupted virions; endogenous in cells; host or cells: virions from cell-free supernatant of HIV-1 infected PHA-stimulated human PBM cells, ion-exchange chromatography
Experimental: RT activity assay with partially purified enzyme. HIV-1 reverse transcriptase was isolated from detergent disrupted virions obtained from the cell-free supernantant of infected PHA-stimulated PBM cells. The enzyme was purified by passing the extract through ion-exchange chromatography columns as described previously (12). The enzyme was characterized as HIV-1 RT based on its specific requirements according to previous description (1, 18). The standard reaction mixture (100 μl) contained 100 mM Tris-HCl (pH 8.0), 50 mM KCl, 2 mM MgCl2. 5 mM dithiothreitol 400 μg/ml bovine serum albumin, 0.05 U/ml (3.1 μg/ml) of (rA)n (dT)12-18, 1 μM [^3 H] dTTP (spec. act. 18,000 cpm/pmol) and 10 μl of HIV-1 Rt. The reactions were incubated and processed as previously described (7).
as §1

[2] = test system: uninfected PHA-stimulated human PBM cells; assay: Cell proliferation / toxicity in uninfected PBM cells (trypan blue exclusion); type: cell-based
Experimental: Cell proliferation. The drugs alone and in combination were evaluated for their potential toxic effects on uninfected PHA-stimulated human PBM cells. Flasks were seeded so that the final cell concentration was 3×10^5 cells ml. The cells were cultured with and without drug for 6 days at which time aliquots were counted for cell viability by using the trypan blue exclusion method.

HIV-1 = conditions: patients, after a 14-day treatment; cited from earlier work
[3] = Human immunodeficiency virus 1, PBMC

In the case of `Cc1cn([C@H]2C[C@H](N=[N+]=[N-])[C@@H](CO)O2)c(=O)[nH]c1=O` [AZT, 3'-azido-3'-deoxythymidine], the EC50 (HCMV strain Ad169; extrapolated in order to calculate C.I.-values, read-out: EC50 (extrapolated)) is reported as 383000 nM, the “inhibitory effect on multiplication of HCMV Ad169 in HEL fibroblasts” value (HCMV strain Ad169; concentrations up to 200 μM) is reported as “virtually without inhibitory effect” and the “effect against HCMV replication in cell culture” value (HCMV strain Ad169; human embryonic lung fibroblasts) is reported as “no inhibitory effect; also recorded: neither inhibited the replication”. The RT activity (HIV-1 (strain LAV-1); AZT 0.002 μM) was 750 kdpm/ml, the RT activity (HIV-1 (strain LAV-1); AZT 0.004 μM) was 584 kdpm/ml and the RT activity (HIV-1 (strain LAV-1); AZT 0.008 μM) was 343 kdpm/ml. The RT activity (HIV-1 (strain LAV-1); AZT 0.016 μM) was 35.9 kdpm/ml, the inhibition at 0.002 µM (HIV-1 (strain LAV-1); [3]) was 3% and the inhibition at 0.004 µM (HIV-1 (strain LAV-1); [3]) was 24.5%. The inhibition at 0.008 µM (HIV-1 (strain LAV-1); [3]) was 55.7%, the inhibition at 0.016 µM (HIV-1 (strain LAV-1); [3]) was 95.5% and the EC50 (HIV-1 (strain LAV-1); [3]) was 6 nM.
With `Cc1cn([C@H]2C[C@H](N=[N+]=[N-])[C@@H](COP(=O)(O)OP(=O)(O)OP(=O)(O)O)O2)c(=O)[nH]c1=O` [AZT-TP, 3'-azido-3'-deoxythymidine-5'-triphosphate] the “m ± SE (slope of median effect plot)” value (HCMV DNA polymerase; CMV DNA polymerase) was 0.88 ± 0.09, the “m ± SE (slope of median effect plot)” value ([1]; HIV-1 reverse transcriptase) was 0.87±0.03 and the EC50 ([1]; HIV-1 reverse transcriptase, read-out: EC50 (median effective concentration)) was 3 nM.
For `O=C(O)P(=O)(O)O` [PFA, phosphonoformic acid], the “toxicity to PBM cells” value [2] was “not toxic”, the EC50 (HCMV strain Ad169; plaque formation, read-out: EC50 (median effective concentration)) was 34000 nM and the “EC50 times lower than that of AZT-TP” value (HCMV DNA polymerase) was “more than 30 times”. For the same compound, the “m ± SE (slope of median effect plot)” value (HCMV DNA polymerase; CMV DNA polymerase) was 0.79 ± 0.02, the EC50 (HCMV DNA polymerase; CMV DNA polymerase, read-out: EC50 (median effective concentration)) was 780 nM and the “HIV-1 p24 antigen concentrations” value (HIV-1) was “significant reduction”. The EC50 [1] was 140 nM, the “m ± SE (slope of median effect plot)” value ([1]; HIV-1 reverse transcriptase) was 0.91±0.03 and the inhibition at 8 µM (HIV-1 (strain LAV-1); [3]) was 9.1%. The inhibition at 16 µM (HIV-1 (strain LAV-1); [3]) was 41.1%, the inhibition at 32 µM (HIV-1 (strain LAV-1); [3]) was 75.5% and the inhibition at 64 µM (HIV-1 (strain LAV-1); [3]) was 88.1%. The inhibition at 128 µM (HIV-1 (strain LAV-1); [3]) was 95.5%, the EC50 (HIV-1 (strain LAV-1); [3]) was 22000 nM and the RT activity (HIV-1 (strain LAV-1); PFA 8 μM) was 703 kdpm/ml. The RT activity (HIV-1 (strain LAV-1); PFA 16 μM) was 455 kdpm/ml, the RT activity (HIV-1 (strain LAV-1); PFA 32 μM) was 190 kdpm/ml and the RT activity (HIV-1 (strain LAV-1); PFA 64 μM) was 93.1 kdpm/ml. For the same compound, the RT activity (HIV-1 (strain LAV-1); PFA 128 μM) was 35.9 kdpm/ml.
